Values after ≈ are worked out from the molar mass of the structure shown. Read-outs that look alike come from different tables or passages of the source.
How the values were obtained:
CYP3A4 = biological target: T1, CYP3A4 (Homo sapiens, UniProt P08684); assay: CYP3A4 inhibition; type: in vitro ADME
T1 construct: Cyprotex, contract assay
Procedure: (§1) A safety panel (Cerep) of 44 selected targets (n = 2) including hERG Inhibition using 10 μM 24 was performed by Eurofins. Ames and CYP3A4 inhibition assays were performed by Cyprotex, and the PXR assay (CYP induction) was performed at Admescope. The PARP assays are described below.

PARP10 = biological target: T2, PARP10 (Homo sapiens, UniProt Q53GL7); assay: PARP10 biochemical assay; conditions: >>: no inhibition detected
T2 construct: made in house
Procedure: All reactions were performed at ambient temperature.
The assay conditions for the other PARP enzymes were used as previously described.[39]

COLO 320DM cells = assay: cells
Procedure: After 5 days, the antiproliferative effect of compound treatment was measured at 490 nm. Mean value ± standard deviation (SD) for one representative experiment of more than three repeated assays, each with six replicates, are shown. […] (b) Representative immunoblots of cytoplasmic TNKS1/2, AXIN1, AXIN2, and cytoplasmic and nuclear transcriptionally active β-catenin (non-phospho) and β-catenin. […] For (b) and (c), control = 0.001% DMSO. (c) Real-time RT-qPCR analyses of WNT/β-catenin signaling target genes (AXIN2, DKK1, NKD1, and APCDD1). Boxplots show median, first and third quartiles, and maximum and minimum whiskers for combined data from three independent experiments with three replicates each. Dotted lines depict the control mean value = 1. For (a) and (c), analysis of variance (ANOVA) tests (Holm–Sidak method, versus control) are indicated by *** (p < 0.001) and * (p < 0.05), while ANOVA on ranks tests (Dunn’s method, versus control) are indicated by ^† (p < 0.05).
Antiproliferative assays using colon cancer cell lines COLO 320DM and RKO were performed as previously described.[39]

[1] = microsomal stability, human; type: in vitro ADME; conditions: microsomes
Procedure: (§2) Kinetic solubility, microsomal stability, and plasma stability were determined following our internal protocol (Symeres). The Caco-2 and PPB determinations were performed by Cyprotex.

[2] = microsomal stability, dog; type: in vitro ADME; conditions: microsomes
Procedure: as §2

[3] = microsomal stability, mouse; type: in vitro ADME; conditions: microsomes
Procedure: as §2

[4] = mouse plasma protein binding; type: in vitro ADME; conditions: read-out: mouse PPB (converted)
Procedure: as §2

kinetic solubility = type: physicochemical; conditions: PBS pH = 7
Procedure: as §2

PARP3 = biological target: T3, PARP3 (Homo sapiens, UniProt Q9Y6F1); assay: PARP3 biochemical assay; conditions: > under 50% inhibition
T3 construct: made in house
Procedure: The enzymatic assay measures unreacted NAD^+, which is chemically reacted into a fluorescent compound.[53] […] All reactions were performed at ambient temperature.
The assay conditions for the other PARP enzymes were used as previously described.[39] Reference compound OD336 behaved in this assay as previously reported.[28]

hERG = biological target: T4, hERG (Homo sapiens, UniProt Q12809); assay: hERG inhibition
T4 construct: Eurofins (Cerep), contract assay
Procedure: as §1

T3 sequence (Q9Y6F1 whole entry): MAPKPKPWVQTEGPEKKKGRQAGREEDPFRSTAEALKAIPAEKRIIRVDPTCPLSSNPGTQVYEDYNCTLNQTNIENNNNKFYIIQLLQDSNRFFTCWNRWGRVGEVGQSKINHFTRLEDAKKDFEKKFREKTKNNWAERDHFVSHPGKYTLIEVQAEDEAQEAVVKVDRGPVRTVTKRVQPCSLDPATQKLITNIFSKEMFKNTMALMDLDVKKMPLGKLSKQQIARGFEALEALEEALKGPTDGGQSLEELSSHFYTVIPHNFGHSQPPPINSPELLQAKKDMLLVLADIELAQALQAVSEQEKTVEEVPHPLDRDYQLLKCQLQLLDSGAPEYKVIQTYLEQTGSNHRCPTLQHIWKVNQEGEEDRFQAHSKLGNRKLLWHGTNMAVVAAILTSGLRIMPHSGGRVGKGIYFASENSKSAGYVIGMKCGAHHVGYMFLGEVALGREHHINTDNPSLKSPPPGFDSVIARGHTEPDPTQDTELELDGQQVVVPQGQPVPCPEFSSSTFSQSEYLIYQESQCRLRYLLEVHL
T4 sequence (Q12809 whole entry): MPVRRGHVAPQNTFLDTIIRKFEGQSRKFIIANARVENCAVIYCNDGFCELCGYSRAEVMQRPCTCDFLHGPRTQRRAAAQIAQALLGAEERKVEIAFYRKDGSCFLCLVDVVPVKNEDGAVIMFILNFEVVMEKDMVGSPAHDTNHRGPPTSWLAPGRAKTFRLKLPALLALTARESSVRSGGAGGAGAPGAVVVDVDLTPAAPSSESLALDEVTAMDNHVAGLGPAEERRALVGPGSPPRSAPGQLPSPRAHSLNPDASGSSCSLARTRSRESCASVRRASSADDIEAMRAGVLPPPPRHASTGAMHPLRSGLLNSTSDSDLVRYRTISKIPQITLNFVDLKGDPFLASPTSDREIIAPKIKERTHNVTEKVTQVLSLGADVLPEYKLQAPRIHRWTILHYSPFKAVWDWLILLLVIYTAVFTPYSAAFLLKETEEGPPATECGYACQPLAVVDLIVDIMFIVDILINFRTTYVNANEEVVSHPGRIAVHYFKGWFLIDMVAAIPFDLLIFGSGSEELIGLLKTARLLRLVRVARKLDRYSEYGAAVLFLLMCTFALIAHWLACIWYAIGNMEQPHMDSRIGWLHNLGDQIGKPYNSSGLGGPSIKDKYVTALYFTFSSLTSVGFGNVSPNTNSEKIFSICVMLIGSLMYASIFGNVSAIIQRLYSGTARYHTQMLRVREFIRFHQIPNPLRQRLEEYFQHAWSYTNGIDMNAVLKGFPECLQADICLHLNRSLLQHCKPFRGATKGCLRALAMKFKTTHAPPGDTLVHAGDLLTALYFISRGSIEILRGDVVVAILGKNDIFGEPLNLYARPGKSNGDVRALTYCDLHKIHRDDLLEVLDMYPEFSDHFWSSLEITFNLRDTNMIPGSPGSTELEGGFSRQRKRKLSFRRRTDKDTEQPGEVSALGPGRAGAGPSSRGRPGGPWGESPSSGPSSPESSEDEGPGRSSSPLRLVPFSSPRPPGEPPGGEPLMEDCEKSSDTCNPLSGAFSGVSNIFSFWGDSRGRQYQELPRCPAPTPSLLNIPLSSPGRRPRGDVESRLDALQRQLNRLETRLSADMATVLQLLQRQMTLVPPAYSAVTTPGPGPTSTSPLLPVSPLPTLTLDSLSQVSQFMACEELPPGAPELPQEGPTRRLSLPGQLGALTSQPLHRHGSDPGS
T2 sequence (Q53GL7 whole entry): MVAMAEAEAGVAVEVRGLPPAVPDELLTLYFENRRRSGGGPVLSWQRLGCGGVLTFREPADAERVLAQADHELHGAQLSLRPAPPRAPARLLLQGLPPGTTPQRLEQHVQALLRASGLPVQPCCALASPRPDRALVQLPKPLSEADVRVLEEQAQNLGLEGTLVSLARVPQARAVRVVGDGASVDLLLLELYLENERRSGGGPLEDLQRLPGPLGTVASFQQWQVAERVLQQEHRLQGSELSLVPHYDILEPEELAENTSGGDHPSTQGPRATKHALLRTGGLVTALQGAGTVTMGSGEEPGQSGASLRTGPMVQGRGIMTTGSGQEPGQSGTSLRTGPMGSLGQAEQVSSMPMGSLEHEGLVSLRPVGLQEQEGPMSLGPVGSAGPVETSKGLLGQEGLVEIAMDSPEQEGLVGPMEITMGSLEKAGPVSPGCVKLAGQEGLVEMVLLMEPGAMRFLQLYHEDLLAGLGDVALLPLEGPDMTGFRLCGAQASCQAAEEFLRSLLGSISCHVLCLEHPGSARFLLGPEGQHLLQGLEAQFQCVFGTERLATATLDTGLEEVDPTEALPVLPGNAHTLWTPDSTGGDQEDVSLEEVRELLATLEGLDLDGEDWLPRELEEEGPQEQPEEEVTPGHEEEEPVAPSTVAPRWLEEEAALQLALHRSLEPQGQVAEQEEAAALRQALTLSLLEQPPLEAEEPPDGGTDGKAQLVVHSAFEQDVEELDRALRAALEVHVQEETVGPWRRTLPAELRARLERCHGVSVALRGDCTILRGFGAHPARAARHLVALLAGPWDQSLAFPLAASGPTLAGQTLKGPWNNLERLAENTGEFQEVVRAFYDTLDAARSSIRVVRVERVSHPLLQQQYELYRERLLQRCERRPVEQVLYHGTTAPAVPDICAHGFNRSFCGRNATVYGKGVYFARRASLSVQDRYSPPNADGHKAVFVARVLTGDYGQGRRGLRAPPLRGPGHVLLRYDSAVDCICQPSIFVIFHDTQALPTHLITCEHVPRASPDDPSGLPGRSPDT
T1 sequence (P08684 whole entry): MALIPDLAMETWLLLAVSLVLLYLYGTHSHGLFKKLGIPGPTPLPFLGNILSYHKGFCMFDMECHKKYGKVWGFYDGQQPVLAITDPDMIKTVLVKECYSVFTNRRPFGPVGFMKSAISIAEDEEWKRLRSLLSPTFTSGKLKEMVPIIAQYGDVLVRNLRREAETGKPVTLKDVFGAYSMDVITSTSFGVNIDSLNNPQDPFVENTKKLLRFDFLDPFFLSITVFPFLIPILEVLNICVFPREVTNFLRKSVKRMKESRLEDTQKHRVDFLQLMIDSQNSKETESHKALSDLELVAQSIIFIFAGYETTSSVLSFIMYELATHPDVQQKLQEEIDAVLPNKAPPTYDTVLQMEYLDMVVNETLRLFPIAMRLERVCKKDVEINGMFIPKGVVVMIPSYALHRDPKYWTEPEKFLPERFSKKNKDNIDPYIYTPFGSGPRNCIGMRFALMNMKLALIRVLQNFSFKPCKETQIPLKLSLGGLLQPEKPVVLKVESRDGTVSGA

## CCOc1ccc(-c2nnc([C@H]3C[C@H](NC(=O)c4cccc5nccnc45)C3)n2-c2ccccc2F)nc1 [Compound 24, N-(trans-3-(5-(5-Ethoxypyridin-2-yl)-4-(2-fluorophenyl)-4H-1,2,4-triazol-3-yl)cyclobutyl)quinoxaline-5-carboxamide]
CYP3A4
  IC50: > 25000 nM
PARP10
  IC50: > 10000 nM
COLO 320DM cells; Homo sapiens, COLO 320DM, 120 h, read-out: COLO 320DM cells GI50, MTS, 5 days
  GI50: 10.1 nM
COLO 320DM cells; MTS, 5 days
  COLO 320DM cells GI25: 2.5 nM
COLO 320DM cells; read-out: COLO 320DM cells GI50, MTS, 5 days
  GI50: 10 nM
[1]
  microsomal CLint at 1 h: 18 µL/min/mg
[2]
  microsomal CLint at 1 h: 3.8 µL/min/mg
[3]
  microsomal CLint at 1 h: 22 µL/min/mg
[4]
  fraction unbound: 0.0142
Kinetic solubility
  solubility kinetic at 1 h: 31 µM (≈ 15.8 µg/mL)
PARP3
  IC50: > 100000 nM
hERG
  IC50: > 25000 nM
